Key:
[1] = biological target: immunoproteasome LMP7/B5i subunit (Homo sapiens, UniProt P20618+P28062); experiment: Caliper-based proteasome enzymatic activity assay, LMP7; format: biochemical; conditions: human recombinant immunoproteasome 0.3 nM, FAM-peptide substrate 1 μM, 3 h at rt
Procedure: (§1) A Caliper-based proteasome assay (Caliper Life Sciences, Hopkinton, Mass.) was used to measure inhibition of the immunoproteasome LMP7/B5i subunit, the immunoproteasome LPM2/β1i subunit, and the constitutive proteasome β5c unit for a compound of Formula (I). For LMP7 and β5c, serial dilutions of test compounds were incubated with either human recombinant immunoprotcasome or constitutive proteasome (0.3 nM enzyme) and a carboxyfluorescein (FAM)-labeled peptide substrate FAM-TYETFKSIMKKSPF-NH2 (1 μM) at it for 3 h. The reaction was then terminated with a buffer containing the known proteasome inhibitor carfilzomib at a concentration of 5 uM. For LMP2, serial dilutions of test compounds were incubated with human recombinant immunoproteasome proteasome (0.3 nM enzyme) and a carboxyfluorescein (FAM)-labeled peptide substrate FAM-[…]-NH2 (1 μM) at rt for 2 h. The reaction was then terminated with a buffer containing the known proteasome inhibitor ixazomib at a concentration of 6.7 uM. The reaction buffer was 20 mM Hepes pH 7.4, 0.01% bovine serum albumin, 0.015% SDS, 0.5 mM EDTA, 1%0/DMSO. The peptide cleavage reaction product was quantified on a Caliper LabChip 3000. Percent inhibition was calculated for each compound dilution and the concentration that produced 50% inhibition was calculated. This value is presented as the IC50.

[2] = biological target: constitutive proteasome β5c unit (Homo sapiens, UniProt P20618+P28074); experiment: Caliper-based proteasome enzymatic activity assay, β5c; format: biochemical; conditions: human recombinant constitutive proteasome 0.3 nM, FAM-peptide substrate 1 μM, 3 h at rt; read-out: β5c subunit IC50
Procedure: as §1

SMILES | IC50 [1] [nM] | IC50 [2] [nM]
CC(C)(C=C(C#N)C(=O)N1CCC[C@@H]1COC(=O)N[C@@H](Cc1coc2ccccc12)B(O)O)N1CCN(C2COC2)CC1 [Example 44, ((R)-2-(benzofuran-3-yl)-1-(((((R)-1-(2-cyano-4-methyl-4-(4-(oxetan-3-yl)piperazin-1-yl)pent-2-enoyl)pyrrolidin-2-yl)methoxy)carbonyl)amino)ethyl)boronic acid] | 2.3 | 396
CC(C)(C)C=C(C#N)C(=O)N1C[C@@H]2C[C@@H]2[C@@H]1COC(=O)N[C@@H](Cc1coc2ccccc12)B(O)O [Example 48, ((R)-2-(benzofuran-3-yl)-1-(((((1S,2R,5R)-3-(2-cyano-4,4-dimethylpent-2-enoyl)-3-azabicyclo[3.1.0]hexan-2-yl)methoxy)carbonyl)amino)ethyl)boronic acid] | 0.6 | 115
CN(C)C/C=C/C(=O)N1CCC[C@@H]1COC(=O)N[C@@H](Cc1coc2ccccc12)B(O)O [Example 49, ((R)-2-(benzofuran-3-yl)-1-(((((R)-1-((E)-4-(dimethylamino)but-2-enoyl)pyrrolidin-2-yl)methoxy)carbonyl)amino)ethyl)boronic acid] | 1.3 | 149
CC(C)(C=C(C#N)C(=O)N1C[C@@H]2C[C@@H]2[C@@H]1COC(=O)N[C@@H](Cc1coc2ccccc12)B(O)O)N1CCOCC1 [Example 51, ((R)-2-(benzofuran-3-yl)-1-(((((1S,2R,5R)-3-(2-cyano-4-methyl-4-morpholinopent-2-enoyl)-3-azabicyclo[3.1.0]hexan-2-yl)methoxy)carbonyl)amino)ethyl)boronic acid] | 0.5 | 356
C=CC(=O)N1C[C@@H]2C[C@@H]2[C@@H]1COC(=O)N[C@@H](Cc1coc2ccccc12)B(O)O [Example 52, ((R)-1-(((((1S,2R,5R)-3-acryloyl-3-azabicyclo[3.1.0]hexan-2-yl)methoxy)carbonyl)amino)-2-(benzofuran-3-yl)ethyl)boronic acid] | 1.3 | 336

Results, then the molecule that gave them:

IC50 [1] [nM] | IC50 [2] [nM] | SMILES
0.5 | 141 | CC(C)(C=C(C#N)C(=O)N1CCC[C@@H]1COC(=O)N[C@@H](Cc1coc2ccccc12)B(O)O)N1CCC(F)(F)C1 [Example 42, ((R)-2-(benzofuran-3-yl)-1-(((((R)-1-(2-cyano-4-(3,3-difluoropyrrolidin-1-yl)-4-methylpent-2-enoyl)pyrrolidin-2-yl)methoxy)carbonyl)amino)ethyl)boronic acid]
2 | 34 | CC(C)(C)C=C(C#N)C(=O)N1CCOC[C@@H]1COC(=O)N[C@@H](Cc1coc2ccccc12)B(O)O [Example 43, ((R)-2-(benzofuran-3-yl)-1-(((((R)-4-(2-cyano-4,4-dimethylpent-2-enoyl)morpholin-3-yl)methoxy)carbonyl)amino)ethyl)boronic acid]
4 | 854 | Cc1ccc(C[C@H](NC(=O)OC[C@H]2CCCCN2C(=O)C(C#N)=CC(C)(C)N2CCOCC2)B(O)O)cc1 [Example 45, ((R)-1-(((((R)-1-(2-cyano-4-methyl-4-morpholinopent-2-enoyl)piperidin-2-yl)methoxy)carbonyl)amino)-2-(p-tolyl)ethyl)boronic acid]
1 | 187 | CC(C)(C=C(C#N)C(=O)N1CCCC[C@@H]1COC(=O)N[C@@H](Cc1coc2ccccc12)B(O)O)N1CCOCC1 [Example 46, ((R)-2-(benzofuran-3-yl)-1-(((((R)-1-(2-cyano-4-methyl-4-morpholinopent-2-enoyl)piperidin-2-yl)methoxy)carbonyl)amino)ethyl)boronic acid]
1.1 | 128 | CC(C)(C=C(C#N)C(=O)N1CCCC[C@@H]1COC(=O)N[C@@H](Cc1coc2ccccc12)B(O)O)N1CCC(F)(F)C1 [Example 47]
9.8 | > 5000 | CC(C)(C)C=C(C#N)C(=O)N1CCCC[C@@H]1COC(=O)N[C@@H](CCc1ccccc1)B(O)O [Example 50, ((R)-1-(((((R)-1-(2-cyano-4,4-dimethylpent-2-enoyl)piperidin-2-yl)methoxy)carbonyl)amino)-3-phenylpropyl)boronic acid]

Source: US11154563B2, “Immunoproteasome inhibitors” (Principia Biopharma Inc., priority 2017, dated 2021)
